From ChEMBL document CHEMBL1138402, “CCR5 receptor antagonists: discovery and SAR study of guanylhydrazone derivatives” (Bioorg Med Chem Lett, 2007)

Target: C-C chemokine receptor type 5 (Homo sapiens, UniProt P51681)
Experiment: Displacement of [125I]MIP1-alpha from human CCR5/CD4 expressed in HEK293 cells
Format: cell-based

Chain of C-C chemokine receptor type 5 (P51681 whole entry): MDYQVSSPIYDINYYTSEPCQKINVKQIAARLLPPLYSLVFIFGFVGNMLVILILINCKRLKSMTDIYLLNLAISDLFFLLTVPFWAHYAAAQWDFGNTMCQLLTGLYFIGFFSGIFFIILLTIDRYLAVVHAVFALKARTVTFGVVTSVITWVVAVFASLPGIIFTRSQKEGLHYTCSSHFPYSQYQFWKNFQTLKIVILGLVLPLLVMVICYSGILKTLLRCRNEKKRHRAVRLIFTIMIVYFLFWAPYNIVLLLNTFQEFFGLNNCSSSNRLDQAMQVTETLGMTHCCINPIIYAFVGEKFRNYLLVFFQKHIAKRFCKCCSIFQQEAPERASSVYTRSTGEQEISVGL

SMILES | IC50
CN(C)Cc1cc(Br)ccc1OCc1ccc(Cl)cc1 | 600 nM
CCN(CC)Cc1cc(Br)ccc1OCc1ccc(Cl)cc1 | 1400 nM
COc1ccc(COc2ccc(Br)cc2/C=N/NC(=N)N)cc1 | 700 nM
N=C(N)N/N=C/c1cc(Br)ccc1OCc1ccc(OCc2ccccc2)cc1 | 2900 nM
COc1ccc([N+](=O)[O-])cc1COc1ccc(Br)cc1/C=N/NC(=N)N | 8700 nM
N=C(N)N/N=C/c1cccc(Cl)c1OCc1ccc(Cl)cc1 | > 30000 nM
COc1cc(Br)cc(/C=N/NC(=N)N)c1OCc1ccc(Cl)cc1 | > 30000 nM
COC(=O)c1cccc(COc2ccc(Br)cc2/C=N/NC(=N)N)c1 | 1600 nM
N=C(N)N/N=C/c1cc(Br)ccc1OCc1cccc(C(=O)O)c1 | 39000 nM
Cc1ccc(COc2ccc(Br)cc2/C=N/NC(=N)N)cc1 | 500 nM
Cc1cccc(COc2ccc(Br)cc2/C=N/NC(=N)N)c1 | 1700 nM
N=C(N)N/N=C/c1cc(Br)ccc1OCc1cccc2ccccc12 | 1100 nM
C/C(=N/NC(=N)N)c1cc(Cl)ccc1OCc1ccc(Cl)cc1 | 8500 nM
CN(/N=C/c1cc(Br)ccc1OCc1ccc(Cl)cc1)C1=NCCN1 | 14000 nM
N=C(N)N/N=C/c1cc(Br)ccc1OCc1ccc(Br)cc1 | 600 nM
N#Cc1ccc(COc2ccc(Br)cc2/C=N/NC(=N)N)cc1 | 480 nM
N#Cc1cccc(COc2ccc(Br)cc2/C=N/NC(=N)N)c1 | 2000 nM
N=C(N)N/N=C/c1cc(Br)ccc1OCc1cccc([N+](=O)[O-])c1 | 1700 nM
N=C(N)N/N=C/c1cc(Cl)ccc1OCc1ccc(Cl)cc1 | 600 nM
N=C(N)N/N=C/c1cc(F)ccc1OCc1ccc(Cl)cc1 | 3400 nM
N=C(N)N/N=C/c1cc(Cl)cc(Cl)c1OCc1ccc(Cl)cc1 | 3100 nM
N=C(N)N/N=C/c1cc(Br)ccc1OCc1ccccc1[N+](=O)[O-] | 5700 nM
CC(C)(C)c1ccc(OCc2ccc(Cl)cc2)c(/C=N/NC(=N)N)c1 | > 30000 nM
N#Cc1ccc(OCc2ccc(Cl)cc2)c(/C=N/NC(=N)N)c1 | 600 nM

SMILES | IC50
N=C(N)N/N=C/c1ccc(Cl)cc1OCc1ccc(Cl)cc1 | > 30000 nM
C/C(=N\NC(=N)N)c1cc(Br)ccc1OCc1ccc(Cl)cc1 | 200 nM
COC(=O)c1ccc(COc2ccc(Br)cc2/C=N/NC(=N)N)cc1 | 1300 nM
CCN(CC)c1ccc(OCc2ccc(Cl)cc2)c(/C=N/NC(=N)N)c1 | > 30000 nM
COc1cc(Br)cc(/C(C)=N/NC(=N)N)c1OCc1ccc(C#N)cc1 | 93 nM
CC/C(=N\NC(=N)N)c1cc(Br)cc(OC)c1OCc1ccc(Cl)cc1 | 400 nM
CC(C)C/C(=N\NC(=N)N)c1cc(Cl)ccc1OCc1ccc(F)cc1 | > 30000 nM
COC(=O)c1ccc(OCc2ccc(Cl)cc2)c(/C=N/NC(=N)N)c1 | > 30000 nM
N=C(N)N/N=C/c1cc(N)ccc1OCc1ccc(Cl)cc1 | > 30000 nM
Clc1ccc(COc2ccc(Br)cc2CN2CCOCC2)cc1 | 1000 nM
N=C(N)N/N=C/c1cc(Br)ccc1OCc1ccc(-c2ccccc2)cc1 | 1700 nM
N=C(N)N/N=C/c1cc(Br)ccc1OCc1ccc(F)cc1F | 3700 nM
C/C(=N\NC(=N)N)c1cc(Cl)ccc1OCc1ccc(Cl)cc1 | 140 nM
CCCC/C(=N\NC(=N)N)c1cc(Cl)ccc1OCc1ccc(F)cc1 | 4200 nM
Clc1ccc(COc2ccc(Br)cc2/C=N/NC2=NCCN2)cc1 | 750 nM
N=C(N)N/N=C/c1cc(Br)ccc1OCc1ccc([N+](=O)[O-])cc1 | 900 nM
N=C(N)N/N=C/c1cc([N+](=O)[O-])ccc1OCc1ccc(Cl)cc1 | 1200 nM
N=C(N)N/N=C/c1cccc(F)c1OCc1ccc(Cl)cc1 | > 30000 nM
N=C(N)N/N=C/c1cc(Br)ccc1OCc1ccccc1 | 1900 nM
N=C(N)N/N=C/c1cc(Br)ccc1OCc1ccc(F)cc1 | 800 nM
N=C(N)N/N=C/c1cc(Br)ccc1OCc1ccc(Cl)cc1 | 840 nM
Clc1ccc(COc2ccc(Br)cc2/C=N/NC2=NCCCN2)cc1 | 2000 nM
N=C(N)N/N=C/c1ccccc1OCc1ccc(Cl)cc1 | > 30000 nM
